# Target: T1, human LMPTP-A (Homo sapiens, UniProt P24666)
# T1 sequence (P24666 1-158): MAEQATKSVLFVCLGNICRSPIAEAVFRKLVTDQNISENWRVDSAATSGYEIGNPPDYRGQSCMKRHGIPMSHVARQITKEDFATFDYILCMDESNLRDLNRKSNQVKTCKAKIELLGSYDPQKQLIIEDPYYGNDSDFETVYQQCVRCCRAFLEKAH
# Test: Enzyme Assay of Inhibition of LMPTP-A (phosphatase assay, OMFP or pNPP substrate)
# Format: biochemical
# Conditions: Bis-Tris pH 6.0, 37° C.
# Protocol: Phosphatase assays were performed in buffer containing 50 mM Bis-Tris, pH 6.0, 1 mM DTT and 0.01% Triton X-100 at 37° C. For assays conducted with 3-O-methylfluorescein phosphate (OMFP) as substrate, fluorescence was monitored continuously at λex=485 and λem=525 nm. For assays conducted with para-nitrophenylphosphate (pNPP) as substrate, the reaction was stopped by addition of 2× reaction volume of 1 M NaOH, and absorbance was measured at 405 nm. IC50 values of compounds of Formula (I), (II), (III), or (IV) were determined from plots of inhibitor concentration versus percentage of enzyme activity. For inhibitor selectivity assays, each PTP was incubated with either 0.4 mM OMFP or 5 mM pNPP in the presence of 40 μM compound or DMSO. […] For the inhibitor reversibility assay, 50 nM human LMPTP-A was pre-incubated with 10 μM of compound of Formula (I), (II), (III), or (IV) or DMSO for 5 min. The enzyme was diluted 100× in phosphatase assay buffer containing 0.4 mM OMFP and fluorescence was measured at the indicated time points.
row,IC50 [nM],SMILES
1,≤ 1000,NC1CCN(C(=O)CCc2ccc(-c3cc(NCCCN4CCCCC4)c4cnccc4n3)cc2)CC1
2,≤ 1000,O=C(NCCc1ccncc1)c1cc2ccc(-c3cc(NCCCN4CCCCC4)c4cnccc4n3)cc2[nH]1
3,≤ 1000,CCNC1CCN(C(=O)CCc2ccc(-c3cc(NCCCN4CCCCC4)c4cnccc4n3)cc2)CC1
4,1000 to 20000,CN1CCCC(CCNC(=O)C#Cc2ccc(-c3cc(NCCCN4CCCCC4)c4cnccc4n3)cc2)CC1 (stereo not drawn)
5,≤ 1000,CCN(CC)C(=O)CNC(=O)CCc1ccc(-c2cc(NCCCN3CCCCC3)c3cnccc3n2)cc1
6,1000 to 20000,CN1CCC(N/C(=N\O)c2ccc(-c3cc(NCCCN4CCCCC4)c4cnccc4n3)cc2)CC1
7,≤ 1000,O=C(c1nc2cc(-c3cc(NCCCN4CCCCC4)c4cnccc4n3)ccc2[nH]1)N1CCNCC1
8,1000 to 20000,"CN1CCC(Nc2cc(-c3ccc4c(c3)cc(C(=O)NCCCN3CCCCC3)n4C)nc3ccncc23)CC1 [1-Methyl-5-(4-((1-methylpiperidin-4-yl)amino)-1,6-naphthyridin-2-yl)-N-(3-(piperidin-1-yl)propyl)-1H-indole-2-carboxamide]"
9,≤ 1000,"CN1CCC(CNC(=O)c2cc3cc(-c4cc(NC5CCN(C)CC5)c5cnccc5n4)ccc3n2C)CC1 [1-Methyl-5-(4-((1-methylpiperidin-4-yl)amino)-1,6-naphthyridin-2-yl)-N-((1-methylpiperidin-4-yl)methyl)-1H-indole-2-carboxamide]"
10,1000 to 20000,"CC(CCN1CCCCC1)Nc1cc(-c2ccc3c(c2)cc(C(=O)NC2CCN(C)CC2)n3C)nc2ccncc12 (stereo not drawn) [1-Methyl-N-(1-methylpiperidin-4-yl)-5-(4-(4-(piperidin-1-yl)butan-2-ylamino)-1,6-naphthyridin-2-yl)-1H-indole-2-carboxamide]"
11,≤ 1000,"CN1CCC(NC(=O)c2cc3cc(-c4cc(NC5CCN(C)CC5)c5cnccc5n4)ccc3n2C)CC1 [1-Methyl-N-(1-methylpiperidin-4-yl)-5-(4-((1-methylpiperidin-4-yl)amino)-1,6-naphthyridin-2-yl)-1H-indole-2-carboxamide]"
12,≤ 1000,"Cn1c(C(=O)NC2CCSCC2)cc2cc(-c3cc(NCCCN4CCCCC4)c4cnccc4n3)ccc21 [1-methyl-5-(4-(3-(piperidin-1-yl)propylamino)-1,6-naphthyridin-2-yl)-N-(tetrahydro-2H-thiopyran-4-yl)-1H-indole-2-carboxamide]"
13,≤ 1000,"Cn1c(C(=O)NC2CCNCC2)cc2cc(-c3cc(NCc4ccc(CN5CCCCC5)cc4)c4cnccc4n3)ccc21 [1-methyl-5-(4-(4-(piperidin-1-ylmethyl)benzylamino)-1,6-naphthyridin-2-yl)-N-(piperidin-4-yl)-1H-indole-2-carboxamide]"
14,1000 to 20000,"Cn1c(C(N)=O)cc2nc(-c3cc(NCCCN4CCCCC4)c4cnccc4n3)ccc21 [1-methyl-5-(4-((3-(piperidin-1-yl)propyl)amino)-1,6-naphthyridin-2-yl)-1H-pyrrolo[3,2-b]pyridine-2-carboxamide]"
15,≤ 1000,"Cn1c(C(=O)NCCc2ccncc2)cc2cc(-c3cc(NCCCN4CCCCC4)c4cnccc4n3)ccc21 [1-methyl-5-(4-((3-(piperidin-1-yl)propyl)amino)-1,6-naphthyridin-2-yl)-N-(2-(pyridin-4-yl)ethyl)-1H-indole-2-carboxamide]"
16,≤ 1000,"Cn1c(C(=O)NC2CCNCC2)cc2cc(-c3cc(NCCCN4CCCCC4)c4cnccc4n3)ccc21 [1-methyl-5-(4-((3-(piperidin-1-yl)propyl)amino)-1,6-naphthyridin-2-yl)-N-(piperidin-4-yl)-1H-indole-2-carboxamide]"
17,≤ 1000,"Cn1c(C(=O)NC2CCOCC2)cc2cc(-c3cc(NCCCN4CCCCC4)c4cnccc4n3)ccc21 [1-methyl-5-(4-((3-(piperidin-1-yl)propyl)amino)-1,6-naphthyridin-2-yl)-N-(tetrahydro-2H-pyran-4-yl)-1H-indole-2-carboxamide]"
18,1000 to 20000,"CN1CCC(NC(=O)c2cc3cc(-c4cc(N(C)CCCN5CCCCC5)c5cnccc5n4)ccc3n2C)CC1 [1-methyl-5-(4-(methyl(3-(piperidin-1-yl)propyl)amino)-1,6-naphthyridin-2-yl)-N-(1-methylpiperidin-4-yl)-1H-indole-2-carboxamide]"

row,IC50 [nM],SMILES
1,1000 to 20000,"CNc1cc(-c2ccc3c(c2)cc(C(N)=O)n3C)nc2ccncc12 [1-methyl-5-(4-(methylamino)-1,6-naphthyridin-2-yl)-1H-indole-2-carboxamide]"
2,1000 to 20000,"CNc1cc(-c2ccc3c(c2)cc(C(=O)NC2CCN(C)CC2)n3C)nc2ccncc12 [1-methyl-5-(4-(methylamino)-1,6-naphthyridin-2-yl)-N-(1-methylpiperidin-4-yl)-1H-indole-2-carboxamide]"
3,1000 to 20000,"CN1CCC(NC(=O)c2cc3cc(-c4cc(OCCCN5CCCCC5)c5cnccc5n4)ccc3n2C)CC1 [1-methyl-N-(1-methylpiperidin-4-yl)-5-(4-(3-(piperidin-1-yl)propoxy)-1,6-naphthyridin-2-yl)-1H-indole-2-carboxamide]"
4,≤ 1000,"CN1CCC(NC(=O)c2cc3cc(-c4cc(NCc5ccc(CN6CCCCC6)cc5)c5cnccc5n4)ccc3n2C)CC1 [1-methyl-N-(1-methylpiperidin-4-yl)-5-(4-(4-(piperidin-1-ylmethyl)benzylamino)-1,6-naphthyridin-2-yl)-1H-indole-2-carboxamide]"
5,≤ 1000,"CN1CCC(NC(=O)c2cc3cc(-c4cc(NCCCN5CCCCC5)c5cnccc5n4)ccc3n2C)CC1 [1-methyl-N-(1-methylpiperidin-4-yl)-5-(4-((3-(piperidin-1-yl)propyl)amino)-1,6-naphthyridin-2-yl)-1H-indole-2-carboxamide]"
6,≤ 1000,"CN1CCC(NC(=O)c2cc3cc(-c4cc(Nc5ccc(CN6CCCC6)cc5)c5cnccc5n4)ccc3n2C)CC1 [1-methyl-N-(1-methylpiperidin-4-yl)-5-(4-((4-(pyrrolidin-1-ylmethyl)phenyl)amino)-1,6-naphthyridin-2-yl)-1H-indole-2-carboxamide]"
7,≤ 1000,"CCCNc1cc(-c2ccc3c(c2)cc(C(=O)NC2CCN(C)CC2)n3C)nc2ccncc12 [1-methyl-N-(1-methylpiperidin-4-yl)-5-(4-(propylamino)-1,6-naphthyridin-2-yl)-1H-indole-2-carboxamide]"
8,≤ 1000,"CN1CCN(CCCNC(=O)c2cc3cc(-c4cc(NCCCN5CCCCC5)c5cnccc5n4)ccc3n2C)CC1 [1-methyl-N-(3-(4-methylpiperazin-1-yl)propyl)-5-(4-((3-(piperidin-1-yl)propyl)amino)-1,6-naphthyridin-2-yl)-1H-indole-2-carboxamide]"
9,≤ 1000,"CN1CCC(CNC(=O)c2cc3cc(-c4cc(NCc5ccc(CN6CCCCC6)cc5)c5cnccc5n4)ccc3n2C)CC1 [1-methyl-N-((1-methylpiperidin-4-yl)methyl)-5-(4-(4-(piperidin-1-ylmethyl)benzylamino)-1,6-naphthyridin-2-yl)-1H-indole-2-carboxamide]"
10,≤ 1000,"O=C(COCc1ccc(-c2cc(NCCCN3CCCCC3)c3cnccc3n2)cc1)NCC1CCNCC1 [2-(4-(4-(3-(piperidin-1-yl)propylamino)-1,6-naphthyridin-2-yl)benzyloxy)-N-(piperidin-4-ylmethyl)acetamide]"
11,≥ 20000,"CCN1CCC(CNC(=O)CCOc2ccc(-c3cc(N(CC)CCCN4CCCCC4)c4cnccc4n3)cc2)CC1 [3-(4-(4-(ethyl(3-(piperidin-1-yl)propyl)amino)-1,6-naphthyridin-2-yl)phenoxy)-N-((1-ethylpiperidin-4-yl)methyl)propanamide]"
12,1000 to 20000,"CCN(CC)C(=O)c1ccc(-c2cc(NCCCN3CCCCC3)c3cnccc3n2)c(C#N)c1 [3-cyano-N,N-diethyl-4-(4-((3-(piperidin-1-yl)propyl)amino)-1,6-naphthyridin-2-yl)benzamide]"
13,1000 to 20000,"CN1CCC(NC(=O)c2ccc(-c3cc(NCCCN4CCCCC4)c4cnccc4n3)c(C#N)c2)CC1 [3-cyano-N-(1-methylpiperidin-4-yl)-4-(4-((3-(piperidin-1-yl)propyl)amino)-1,6-naphthyridin-2-yl)benzamide]"
14,1000 to 20000,"CCN(CC)C(=O)c1ccc(-c2cc(Nc3ccc(CN(C)C)cc3)c3cnccc3n2)cc1 [4-(4-(4-((Dimethylamino)methyl)phenylamino)-1,6-naphthyridin-2-yl)-N,N-diethylbenzamide]"
15,1000 to 20000,"CCN(CC)C(=O)c1ccc(-c2cc(Nc3ccc(N(C)C)cc3)c3cnccc3n2)cc1 [4-(4-(4-(Dimethylamino)phenylamino)-1,6-naphthyridin-2-yl)-N,N-diethylbenzamide]"
16,1000 to 20000,"CN1CCC(Nc2cc(-c3ccc(C(=O)NCCCN4CCCCC4)cc3)nc3ccncc23)C1 (stereo not drawn) [4-(4-((1-Methylpyrrolidin-3-yl)amino)-1,6-naphthyridin-2-yl)-N-(3-(piperidin-1-yl)propyl)benzamide]"
17,1000 to 20000,"CCN(CC)C(=O)c1ccc(-c2cc(NCCN3CCS(=O)(=O)CC3)c3cnccc3n2)cc1 [4-(4-((2-(1,1-Dioxidothiomorpholino)ethyl)amino)-1,6-naphthyridin-2-yl)-N,N-diethylbenzamide]"
18,1000 to 20000,"CCN(CC)C(=O)c1ccc(-c2cc(NCCN(C)C)c3cnccc3n2)cc1 [4-(4-((2-(Dimethylamino)ethyl)amino)-1,6-naphthyridin-2-yl)-N,N-diethylbenzamide]"
